Experimental data taken from paper PMC11129975, “A first-in-human phase I study of TAS-117, an allosteric AKT inhibitor, in patients with advanced solid tumors” (Cancer Chemotherapy and Pharmacology, 2024).
Like-named read-outs stand apart in the source and are kept apart here. Marks after values point to notes of the source that are not given here.

Experiments:
[1] = set-up: method as in data on file, Taiho Pharmaceutical Co., Ltd.; conditions: repeated dosing; ref data on file, Taiho Pharmaceutical Co., Ltd.; cited from earlier work
[2] = tested on: multiple tumor cell lines derived from human cancers; set-up: method as in data on file, Taiho Pharmaceutical Co., Ltd.; conditions: breast, ovarian, gastric, endometrial and myeloma lines; ref data on file, Taiho Pharmaceutical Co., Ltd.; cited from earlier work
NCI-N87 = conditions: oral dosing; NCI-N87 (HER2 amplification); cited from earlier work
[3] = Plasma and urine pharmacokinetics of TAS-117 in patients; type: in vivo, human
Procedure: Blood samples for pharmacokinetic analysis were collected immediately prior to dosing (0 h) and at 0.5, 1, 2, 3, 4, 6, 8, 12, and 24 h post-dose on Day 1 and Day 21 of Cycle 1 for patients in the DEP (QD dosing). For patients who received intermittent dosing regimens, blood was collected immediately prior to dosing (0 h) and at 1, 2, 3, 4, 6, 8, 10, and 24 h post-dose on Cycle 1 Day 1; immediately prior to dosing (0 h) on Cycle 1 Days 3, 4, and 8; and immediately prior to dosing (0 h) and at 1, 2, 3, 4, 6, 8, 10, 24, 48, and 96 h post-dose on Cycle 1 Day 18. Urine samples for pharmacokinetic analysis were collected immediately prior to dosing (single sample collection) and from 0 to 6 h and from 6 to 12 h and 12 to 24 h post-dose on Day 1 of Cycle 1 for both QD and intermittent dosing. Blood samples for pharmacodynamic analysis were collected at pre-dose and 4, 8, and 24 h post-dose on Cycle 1 Day 1, and at pre-dose and 4 h post-dose on Cycle 1 Day 21 (QD dosing) or Cycle 1 Day 18 (intermittent dosing).
Descriptive data were used to summarize safety data and antitumor activity. Pharmacokinetic parameters were derived using non-compartmental analysis and summarized descriptively by dose level, study day, and study phase. […] The accumulation of TAS-117 was assessed by comparing pharmacokinetic parameters on Day 1 and Day 21 (QD) or Day 18 (intermittent dosing). Pharmacodynamic data were presented using summary statistics of the ratio of pPRAS40/total PRAS40 to baseline values (pre-dose) on Day 1 and Day 18 or 21, by dose level and treatment regimen. Pharmacogenomics data were summarized, and the relevance between biomarkers and efficacy was analyzed using Fisher’s Exact test.
P-values < 0.05 were considered significant. Missing data were not imputed, and analyses were performed using all available data. Plasma pharmacokinetic parameters were evaluated using Phoenix® WinNonlin® software (Pharsight Corporation as part of Certara, Princeton, NJ, US, Version 8.1 or 8.3). Statistical analyses were performed using SAS version 9.4 (SAS Institute; Cary, NC, US).

[4] = set-up: method as in data on file, Taiho Pharmaceutical Co., Ltd.; conditions: ref data on file, Taiho Pharmaceutical Co., Ltd., cited from earlier work
KPL-4 = conditions: oral dosing; KPL-4 (HER2 amplification, PIK3CA mutation); cited from earlier work
[5] = DEP, Cycle 1 Day 1, 8 mg QD, n = 1
[6] = DEP, Cycle 1 Day 1, 16 mg QD, n = 6
[7] = DEP, Cycle 1 Day 1, 24 mg QD, n = 3
[8] = DEP, Cycle 1 Day 1, 24 mg QD, n = 2
[9] = DEP, Cycle 1 Day 21, 8 mg QD, n = 1
[10] = DEP, Cycle 1 Day 21, 16 mg QD, n = 3
[11] = DEP, Cycle 1 Day 21, 16 mg QD, n = 2
[12] = DEP, Day 21 vs Day 1, 16 mg QD, n = 3
[13] = RMP, Cycle 1 Day 1, 24 mg intermittent dosing (4 days on/3 days off), n = 6
[14] = RMP, Cycle 1 Day 1, 24 mg intermittent dosing (4 days on/3 days off), n = 5
[15] = RMP, Cycle 1 Day 1, 32 mg intermittent dosing (4 days on/3 days off), n = 4
[16] = RMP, Cycle 1 Day 18, 24 mg intermittent dosing (4 days on/3 days off), n = 5
[17] = RMP, Cycle 1 Day 18, 32 mg intermittent dosing (4 days on/3 days off), n = 1
[18] = RMP, Day 18 vs Day 1, 24 mg intermittent dosing, n = 5
[19] = RMP, Day 18 vs Day 1, 32 mg intermittent dosing, n = 1

## C[C@]1(O)C[C@@](N)(c2ccc(-c3nc4n(c3-c3ccccc3)COc3ccncc3-4)cc2)C1 [TAS-117]
[1]
  Toxicity findings: dysregulation of carbohydrate metabolism and atrophic changes in the lymphatic/hematopoietic organs and adipocytes
[2]
  Anti-proliferative activity: strong anti-proliferative activity
NCI-N87
  Antitumor activity: demonstrated single-agent antitumor activity
[3]; 8 to 32 mg dose range
  Dose proportionality of Cmax, AUClast and AUC0–24: dose proportional
[3]; [5]
  AUC0–24: 164 ng·h/mL
  AUClast: 165 ng·h/mL
  CLr: 4.11 L/h
  Cmax: 8.82 ng/mL
  t1/2: 21.96 h
  tmax: 1.93 h
[3]; DEP, Cycle 1 Day 1, 8 mg QD, n = 1, urinary excretion rate as percentage of dose
  Fe: 8.45%
[3]; [6]
  AUC0–24, Mean (SD): 315 (73) ng·hr/mL
  AUC0–24, gMean: 308 ng·h/mL
  AUClast, Mean (SD): 316 (73) ng·hr/mL
  AUClast, gMean: 308 ng·h/mL
  CLr, Mean (SD): 5.20 (2.19) L/h
  CLr, gMean: 4.78 L/h
  Cmax, Mean (SD): 25.1 (7.66) ng/mL
  Cmax, gMean: 24.1 ng/mL
  Fe, Mean (SD): 10.43 (4.94) %
  Fe, gMean: 9.20%
  t1/2, Mean (SD): 26.98 (6.06) h
  t1/2, gMean: 26.40 h
  tmax, median (min, max): 2.98 (1.88, 3.89)^c h
[3]; [7]
  AUC0–24, Mean (SD): 438 (194) ng·hr/mL
  AUC0–24, gMean: 407 ng·h/mL
  AUClast, Mean (SD): 438 (193) ng·hr/mL
  AUClast, gMean: 408 ng·h/mL
  CLr, Mean (SD): 6.39 (2.72) L/h
  CLr, gMean: 6.04 L/h
  Cmax, Mean (SD): 31.0 (15.7) ng/mL
  Cmax, gMean: 28.6 ng/mL
  Fe, Mean (SD): 10.48 (2.73) %
  Fe, gMean: 10.25%
  tmax, median (min, max): 3.98 (3.92, 6.00)^c h
[3]; [8]
  t1/2, Mean (SD): 23.06 (NC)^d h
  t1/2, gMean: 22.61^d h
[3]; [9]
  AUClast: 604 ng·h/mL
  Cmax: 33.1 ng/mL
  tmax: 7.85 h
[3]; [10]
  AUC0–24, Mean (SD): 865 (216) ng·hr/mL
  AUC0–24, gMean: 846 ng·h/mL
  AUClast, Mean (SD): 864 (220) ng·hr/mL
  AUClast, gMean: 844 ng·h/mL
  Cmax, Mean (SD): 61.4 (22.2) ng/mL
  Cmax, gMean: 58.3 ng/mL
  tmax, median (min, max): 1.93 (1.87, 2.02)^c h
[3]; [11]
  t1/2, Mean (SD): 41.65 (NC)^d h
  t1/2, gMean: 41.23^d h
[3]; DEP, Day 21 vs Day 1, 8 mg QD, n = 1
  Observed accumulation ratio of Cmax: 3.75
[3]; [12]
  Observed accumulation ratio of AUC0–24, Mean (SD): 2.84 (0.04)
  Observed accumulation ratio of AUC0–24, gMean: 2.83
  Observed accumulation ratio of Cmax, Mean (SD): 2.71 (0.48)
  Observed accumulation ratio of Cmax, gMean: 2.69
[3]; [13]
  AUC0–24, Mean (SD): 543 (108) ng·hr/mL
  AUC0–24, gMean: 534 ng·h/mL
  AUClast, Mean (SD): 542 (107) ng·hr/mL
  AUClast, gMean: 533 ng·h/mL
  CLr, Mean (SD): 4.55 (1.43) L/h
  CLr, gMean: 4.34 L/h
  Cmax, Mean (SD): 42.1 (11.1) ng/mL
  Cmax, gMean: 40.9 ng/mL
  Fe, Mean (SD): 10.02 (2.85) %
  Fe, gMean: 9.65%
  tmax, median (min, max): 3.28 (0.95, 4.15)^c h
[3]; [14]
  t1/2, Mean (SD): 31.92 (10.77)^e h
  t1/2, gMean: 30.44^e h
[3]; [15]
  AUC0–24, Mean (SD): 770 (155) ng·hr/mL
  AUC0–24, gMean: 758 ng·h/mL
  AUClast, Mean (SD): 774 (162) ng·hr/mL
  AUClast, gMean: 761 ng·h/mL
  CLr, Mean (SD): 4.12 (1.82) L/h
  CLr, gMean: 3.80 L/h
  Cmax, Mean (SD): 60 (18.4) ng/mL
  Cmax, gMean: 58.0 ng/mL
  Fe, Mean (SD): 9.32 (2.71) %
  Fe, gMean: 9.01%
  t1/2, Mean (SD): 24.02 (3.80) h
  t1/2, gMean: 23.81 h
  tmax, median (min, max): 2.43 (1.95, 4.03)^c h
[3]; [16]
  AUC0–24, Mean (SD): 1498 (500) ng·hr/mL
  AUC0–24, gMean: 1433 ng·h/mL
  AUClast, Mean (SD): 3542 (1023) ng·hr/mL
  AUClast, gMean: 3420 ng·h/mL
  Cmax, Mean (SD): 89.9 (37.4) ng/mL
  Cmax, gMean: 83.8 ng/mL
  t1/2, Mean (SD): 49.31 (7.73) h
  t1/2, gMean: 48.83 h
  tmax, median (min, max): 2.00 (0.98, 5.92)^c h
[3]; [17]
  AUC0–24: 2105 ng·h/mL
  AUClast: 5558 ng·h/mL
  Cmax: 160 ng/mL
  t1/2: 49.63 h
  tmax: 1.00 h
[3]; [18]
  Observed accumulation ratio of AUC0–24, Mean (SD): 2.70 (0.37)
  Observed accumulation ratio of AUC0–24, gMean: 2.68
  Observed accumulation ratio of Cmax, Mean (SD): 2.06 (0.73)
  Observed accumulation ratio of Cmax, gMean: 1.95
[3]; [19]
  Observed accumulation ratio of AUC0–24: 2.69
  Observed accumulation ratio of Cmax: 2.50
[3]; indicated by t1/2 data
  Steady state reached by: ≤ 8 days
[4]; 4-week repeated oral dose
  Highest non-severely toxic dose: 1.2 mg/kg/day
[4]; repeated dosing
  Toxicity findings: dysregulation of carbohydrate metabolism and atrophic changes in the lymphatic/hematopoietic organs and adipocytes
KPL-4
  Antitumor activity: demonstrated single-agent antitumor activity
